# Assay results from publication PMC7076358, “Absorption and Intestinal Metabolic Profile of Oleocanthal in Rats” (Pharmaceutics, 2020).
# Read-outs that look alike come from different tables or passages of the source.
# Assays:
# [1] = set-up: method as in PMID 15760043, PMID 9068926; conditions: cited from earlier work
# [2] = source not stated; cited from earlier work
# [3] = in situ single-pass intestinal perfusion with simultaneous luminal perfusate and mesenteric blood sampling; format: in vivo, Sprague–Dawley rats
# Procedure: LEV was assayed at 3 mg/mL, according to its high dose strength, in 250 mL TM.
# Single-pass intestinal perfusion was performed in anesthetized rats according to the method described by Brouwers et al. [15], with simultaneous sampling from the luminal perfusate and mesenteric blood.
# Anaesthesia was induced by intraperitoneal injection of pentobarbital sodium (60 mg/kg BW). The rats were then placed on a homeothermic blanket to maintain the body temperature at 37 °C. First, under general anaesthesia, the left jugular vein was cannulated with a heparinised (50 IU/mL) 0.5 × 0.9 mm/20 G catheter (Cavafix® MT, Braun Medical S.A., Barcelona, Spain) for infusion of donor blood. Second, a midline abdominal incision was made to isolate approximately 10 cm of the ileum using the ileocecal junction as a point of reference. Two glass cannulas (o.d. 4 mm, i.d. 3 mm, Duran®, Vidrafoc, Barcelona, Spain) were inserted at the proximal and distal ends of the isolated segment. The segment was rinsed by injection TM to remove the content until the solution came out clear. Next, the inlet cannula was connected to polyethylene tubing (i.d. 3 mm), which aspirated the tested solution (OLC or LEV) using a peristaltic pump (Minipuls3, M312 model, Gilson, Le Bel, France). Finally, the mesenteric vein draining blood from the intestinal segment was cannulated by inserting approximately 1 cm of a catheter (BD Insyte-W 24GA 0.7 × 19 mm, Becton Dickinson, Sangüesa S.A., Cornellà de Llobregat, Spain). The cannula was secured with a knot and connected to a silicone tube (i.d. 0.64 mm; o.d. 1.19 mm, Freudenberg Medical Europe, VWR International Eurolab S.L., Llinars del Vallés, Spain) that allowed blood to flow into the heparinised tubes. Care was taken to handle the small intestine gently to maintain normal blood supply. […]
# The experiments were carried out in a laboratory room with infrared light to avoid oxidation of OLC. […] At the end of the experiment, the animal was euthanised by injection of air into the jugular, and the length of the intestinal segment was measured. […]
# Caco-2 cell monolayers = tested on: Caco-2 cell monolayers; set-up: method as in PMID 10745093; conditions: differentiated Caco-2 cell monolayers; cited from earlier work
# [4] = set-up: method as in PMID 11110859; conditions: rat intestine perfused, cited from earlier work
smiles,measurement,setting,value
"C[C@H]1COc2c(N3CCN(C)CC3)c(F)cc3c(=O)c(C(=O)O)cn1c23 [LEV, levofloxacin]",oral bioavailability,[1],~100%
"C/C=C(/C=O)[C@@H](CC=O)CC(=O)OCCc1ccc(O)cc1 [OLC, oleocanthal]",logP,[2],1.15
same,Peff at 60 min,"[3]; Sprague-Dawley, pH 7, rat ileum, disappearance from lumen, OLC 0.1 mg/mL, LEV 3 mg/mL, flow 1 mL/min, mean ± SD, n = 4, normalised to 10-cm segment, read-out: Peff (effective permeability coefficient)",22.3 ± 31.6 ×10⁻⁶ cm/s
same,Papp at 60 min,"[3]; Sprague-Dawley, rat, pH 7, rat ileum, appearance in mesenteric blood, OLC 0.1 mg/mL, LEV 3 mg/mL, mean ± SD, n = 4, normalised to 10-cm segment, read-out: Papp (apparent permeability coefficient)",4.12 ± 2.33 ×10⁻⁶ cm/s
same,absorption,"[3]; rat in situ intestinal perfusion, stated in conclusions",16%
OCCc1ccc(O)c(O)c1 [hydroxytyrosol],permeability,Caco-2 cell monolayers,12.4 ± 0.9 × 10^−6 cm/s
C/C=C1/[C@H](O[C@@H]2O[C@H](CO)[C@@H](O)[C@H](O)[C@H]2O)OC=C(C(=O)OC)[C@H]1CC(=O)OCCc1ccc(O)c(O)c1 [oleuropein],intestinal permeability coefficient,[4]; hypotonic conditions,5.92 ×10⁻⁶ cm/s
same,intestinal permeability coefficient,[4]; iso-osmotic conditions,1.47 ×10⁻⁶ cm/s
